Where a name gives a salt, the structure may show the parent alone.
Key:
[1] = system: LDL receptor/ApoE deficient mice; experiment: Combination study (experiment II): plasma lipids/lipoproteins after Compound (I), atorvastatin calcium salt or both; type: in vivo; conditions: for HDL, % Change compared to control group / LDL, % Change compared to control group / LP-remnants, % Change compared to control group: FPLC
Description: (§1) Compound (I) was dissolved in polyethanylglycol (PEG):ethanol:solutol:Water (4:1:0.5:8.5) vehicle and administered by gavage once a day in the afternoon.
(§2) Altogether 54 female LDL receptor/ApoE deficient mice were used (5 to 6 weeks old weighing 25 to 30 g at the start of the study; obtained from B&M/AS, Denmark). They were kept under standardized conditions with free access to water and chow. The light-cycle hours were between 6:00 a.m. and 6:00 p.m. In experiment I, the dose response study, the mice were treated with Compound (I) by gavage once a day in the afternoon the first three days and in the morning the last day. The control group on regular R^3-chow received the vehicle by gavage. […] The control group received R^3 chow and vehicle.
(§3) Mice were starved 3 hours before they were scarified at 10 a.m. Animals were anaesthetized with isofluran, bled by cardiac puncture, and thereafter killed by cervical dislocation. Blood was collected into EDTA containing tubes, plasma was separated by centrifugation and stored at −70° C.
(§4) Cholesterol in plasma and in FPLC on line measurement was performed with a commercial cholesterol kit from Roche Diagnostics, GmbH, Germany, Cholesterol, CHOD-PAP 1489437.
(§5) Triglycerides in plasma was measured by using a commercial reagent kit, from Roche Diagnostics, GmbH, Germany, Triglycerides/GB, 450032.
(§6) The cholesterol distribution profiles were measured by using a size exclusion high performance liquid chromatography system, SMART, with column Superose 6 PC 3.2/30, (Amersham Pharmacia Biotec, Uppsala, Sweden). The chromatographic system was linked to an air segmented continuous flow system for online post-derivatization analysis of total cholesterol by using enzymatic colorimetric reagents. The SMART-system was connected to a sample injector, (Gina 50, Gynkotek HPLC, Germering, GmbH). Elution buffer consisted of 0.01M Tris, 0.03 M NaCl, pH 7.40, flow rate […]. The on line flow system was equipped with a peristaltic pump, flow rate 0.7 ml/min, and an incubation coil for 8 minutes at 37° C. The absorbance was measured at […] with a UV/VIS detector, (Jasco UV-970, Jasco International Co, Ltd, Japan). Data were integrated with a Chromeleon chromatography data system (Gynkotek HPLC, Germering GmbH). The distribution of lipoproteins was continuously measured as total cholesterol by using enzymatic calorimetric reagent, reconstituted in water, double volume compared to manufacturer instructions. The commercial kits were from Roche Diagnostics, GmbH, Germany, Cholesterol, CHOD-PAP 1489437. The separation was performed within 60 minutes on a 10 μl sample. The integrated area of the fractions was expressed in molar concentration. The various peaks in the profiles are designated LP-remnants, LDL, and HDL for simplicity, even though it is clear that the separation is determined primarily by the size of the lipoproteins.

[2] = system: LDL receptor/ApoE deficient mice; experiment: Dose response study (experiment I): plasma lipids/lipoproteins after Compound (I) by gavage; type: in vivo; conditions: for Chol (plasma total cholesterol), % Change compared to control group / LP-remnants + LDL/HDL, % Change compared to control group / TG (plasma triglycerides), % Change compared to control group / HDL, % Change compared to control group / LDL, % Change compared to control group / LP-remnants, % Change compared to control group: three days, gavage
Description: as §1, §2, §3, §4, §5, §6
With the aim to determine the effect of the BAT inhibitor, Compound (I), on the level of plasma lipids in LDL receptor/ApoE deficient mice, groups of animals received vehicle or Compound (I) at increasing doses (0.62, 2.5, 10 and 40 μmol/kg/day) for 3.5 days. […] To analyze plasma lipoproteins in detail, plasma lipoprotein patterns were generated after separation of plasma by FPLC.

[3] = FPLC analysis of plasma, 7 days
[4] = one week, Compound (I) 10 μmol/kg/day by gavage, atorvastatin calcium salt 0.05% in chow
[5] = FPLC, dose not stated in the sentence (Table 1: 40 μmol/kg/day)

CC(C)c1c(C(=O)Nc2ccccc2)c(-c2ccccc2)c(-c2ccc(F)cc2)n1CC[C@@H](O)C[C@@H](O)CC(=O)O [Atorvastatin calcium salt, reference compound]
reduction of LDL cholesterol [1, 3]: 44%
LP-remnants + LDL/HDL, % Change compared to control group [1, 4]: 2%
HDL, % Change compared to control group [1, 4]: −22%
LDL, % Change compared to control group [1, 4]: −43%
LP-remnants, % Change compared to control group [1, 4]: −2%

CCCC[C@]1(CC)CS(=O)(=O)c2cc(O[C@@H]3O[C@H](C(=O)O)[C@@H](O)[C@H](O)[C@H]3O)ccc2[C@@H](c2ccccc2)N1 [Compound (I), (3R,5R)-3-butyl-3-ethyl-1,1-dioxido-5-phenyl-2,3,4,5-tetrahydro-1,4-benzothiazepin-8-yl β-D-glucopyranosiduronic acid]
Chol (plasma total cholesterol), % Change compared to control group ([2]; 0.625 μmol/kg/day): −9%
LP-remnants + LDL/HDL, % Change compared to control group ([2]; 0.625 μmol/kg/day): −30%
TG (plasma triglycerides), % Change compared to control group ([2]; 0.625 μmol/kg/day): 13%
HDL, % Change compared to control group ([2]; 0.625 μmol/kg/day, FPLC): 29%
LDL, % Change compared to control group ([2]; 0.625 μmol/kg/day, FPLC): 8%
LP-remnants, % Change compared to control group ([2]; 0.625 μmol/kg/day, FPLC): −27%
Chol (plasma total cholesterol), % Change compared to control group ([2]; 10 μmol/kg/day): −35%
LP-remnants + LDL/HDL, % Change compared to control group ([2]; 10 μmol/kg/day): −55%
TG (plasma triglycerides), % Change compared to control group ([2]; 10 μmol/kg/day): 23%
HDL, % Change compared to control group ([2]; 10 μmol/kg/day, FPLC): 36%
LDL, % Change compared to control group ([2]; 10 μmol/kg/day, FPLC): −20%
LP-remnants, % Change compared to control group ([2]; 10 μmol/kg/day, FPLC): −54%
Chol (plasma total cholesterol), % Change compared to control group ([2]; 40 μmol/kg/day): −40%
LP-remnants + LDL/HDL, % Change compared to control group ([2]; 40 μmol/kg/day): −62%
TG (plasma triglycerides), % Change compared to control group ([2]; 40 μmol/kg/day): 8%
HDL, % Change compared to control group ([2]; 40 μmol/kg/day, FPLC): 45%
LDL, % Change compared to control group ([2]; 40 μmol/kg/day, FPLC): −23%
LP-remnants, % Change compared to control group ([2]; 40 μmol/kg/day, FPLC): −63%
Plasma triglycerides (in words) ([2]; 0.62-40 μmol/kg/day, 3.5 days): not significantly altered
HDL cholesterol (in words) ([2]; FPLC): no reduction
reduction in plasma cholesterol in LDL fraction [2, 5]: 23%
reduction in plasma cholesterol in LP-remnants fraction [2, 5]: 63%
reduction of total plasma cholesterol ([2]; highest dose (40 μmol/kg/day), 3.5 days): 40%
increase in HDL cholesterol ([1]; 7 days): 22%
effect on the plasma triglyceride level (in words) ([1]; 7 days, Compound (I) 10 μmol/kg/day alone): no effect
reduction of total plasma cholesterol ([1]; 7 days, atorvastatin calcium salt 0.05% in diet (approximately 80-100 mg/kg/day), Compound (I) 10 μmol/kg/day): 40%
reduction of LDL cholesterol [1, 3]: 30%
reduction of LP-remnants cholesterol [1, 3]: 62%
Chol (plasma total cholesterol), % Change compared to control group [1, 4]: −42%
LP-remnants + LDL/HDL, % Change compared to control group [1, 4]: −54%
TG (plasma triglycerides), % Change compared to control group [1, 4]: 7%
HDL, % Change compared to control group [1, 4]: 22%
LDL, % Change compared to control group [1, 4]: −29%
LP-remnants, % Change compared to control group [1, 4]: −62%
